Tests used:
EF2K [1] = molecular target: T1, EF2K (Homo sapiens, UniProt O00418); test: Biochemical EF2K lysate-based kinase assay (AlphaLISA p-eEF2 Thr56); details: pIC50 = -log IC50 (M), read-out: eEF2K_C_alphalisa pIC50 (converted)
T1 construct: host or cells: LN-229 cell lysate
T1 sequence (O00418 1-725): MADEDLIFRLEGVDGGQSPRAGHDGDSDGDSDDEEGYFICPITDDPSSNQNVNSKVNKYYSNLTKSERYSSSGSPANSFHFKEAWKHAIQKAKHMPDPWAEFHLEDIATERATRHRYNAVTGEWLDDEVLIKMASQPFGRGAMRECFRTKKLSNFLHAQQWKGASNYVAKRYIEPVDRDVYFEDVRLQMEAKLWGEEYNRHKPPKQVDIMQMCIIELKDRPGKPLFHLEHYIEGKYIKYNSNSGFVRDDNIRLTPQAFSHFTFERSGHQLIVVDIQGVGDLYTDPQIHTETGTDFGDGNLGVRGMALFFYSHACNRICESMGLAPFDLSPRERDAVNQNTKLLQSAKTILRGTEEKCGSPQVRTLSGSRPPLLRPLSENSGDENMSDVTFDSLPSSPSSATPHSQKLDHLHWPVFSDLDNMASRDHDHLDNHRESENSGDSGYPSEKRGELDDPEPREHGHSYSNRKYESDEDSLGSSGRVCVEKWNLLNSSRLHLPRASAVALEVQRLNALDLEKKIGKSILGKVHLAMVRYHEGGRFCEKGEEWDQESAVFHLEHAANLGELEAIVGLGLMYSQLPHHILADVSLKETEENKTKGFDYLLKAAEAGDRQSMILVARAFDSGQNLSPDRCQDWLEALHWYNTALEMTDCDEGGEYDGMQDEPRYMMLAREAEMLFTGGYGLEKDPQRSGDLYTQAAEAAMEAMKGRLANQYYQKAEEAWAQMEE
Excerpt: Biochemical EF2K Lysate-Based Kinase Assay
LN-229 cells were purchased from ATCC (CRL-2611); these are glioblastoma cells. Cell lysates from LN229 were used in this kinase assay to provide both the kinase and the substrate (EF2). The AlphaLISA p-eEF2 (Thr56) detection assay was developed using a sandwich assay format with two specific antibodies recognizing different epitopes of the target, including one antibody against the phosphorylation site of interest. One anti-eEF2 antibody was conjugated onto AlphaLISA Acceptor beads, while the second antibody was biotinylated and captured by streptavidin coated Donor beads.
Compound was mixed with LN-229 cell lysates in the presence of a kinase buffer (e.g. HEPES) at a pH of 6.6, containing 10 mM Mg^2+ (e.g. magnesium acetate) and 10 mM adenosine-tri-phosphate (ATP) and incubated at room temperature for 15 minutes. The kinase reaction was stopped with excess ethylenediaminetetraacetic acid disodium salt and the biotinylated-anti phospho eEF2 antibody (3 nM) was added for 1 hour. Then the anti-EF2 acceptor beads (10 μg/ml) as well as the streptavidin coated donor beads (20 μg/ml) were added for 1 hour, and the AlphaLISA signal was measured in an Envision instrument once, left overnight, and measured again for the final read.
(§1) (pIC50 is −log IC50 where IC50 represents the concentration expressed in M at which the test compound gives 50% inhibition)

EF2K [2] = molecular target: T1, EF2K; test: EF2K cell-based assay (P-EF2 AlphaLISA, 2-deoxyglucose stimulated MCF10A cells); details: 2.5 mM 2-deoxyglucose stimulated, P-EF2 Thr56, pIC50 = -log IC50 (M); for IC50: read-out: eEF2K_C_PThr56 pIC50 (converted)
Description: In this assay, 2.5 mM 2-deoxyglucose was used to deplete intracellular ATP and activate 5′ adenosine monophosphate-activated protein kinase (AMPK) in the immortalized epithelial breast cell lines, MCF10A. MCF 10A cells were purchased from ATCC (CRL-10317).
MCF10A cells are seeded at a density of 1.25×10^5 Cells/ml at 100 μl/well in a 96-well plate and incubated for 24 hours (37° C., 5% CO2). Compound is added for 1 hour, and cell are stimulated with 2.5 mM of 2-deoxy-glucose for 4 hours. Medium is then removed, and cells are lysed in an ice-cold buffer M-PER (Thermo Scientific, 78501), containing protease and phosphatase inhibitors. P-EF2 levels are determined in these lysates using the P-EF2 AlphaLISA described above.
as §1

[3] = molecular target: Vps34 (PIK3C3 lipid kinase) (Homo sapiens, UniProt Q8NEB9); test: Biochemical Vps34 lipid kinase assay (ADP-Glo); details: for IC50: serial half-log dilution 10 μM to 0.3 nM, pIC50 = -log IC50 (M); for VPS34_1microM_% of cntrl / remaining activity at 1 µM: single dose 1 μM compound, residual activity compared to control (DMSO); for remaining activity at 1 µM: 1 h, read-out: VPS34_1microM_% of cntrl
Description: Biochemical Vps34 Lipid Kinase Assay
A non-radiometric kinase assay (ADP-Glo™ Assay, Promega, Madison, Wi, USA) was used for measuring the kinase activity of the PIK3C3 lipid kinase. All kinase assays were performed in 96-well half-area microtiter plates in a 25 μl reaction volume. The reaction cocktail was pipetted in 3 steps in the following order: • 10 μl of ATP solution (in assay buffer, see below) • 5 μl of test sample in 5% DMSO 10 μl of enzyme/substrate mixture
All lipid kinase assays contained 50 mM HEPES (4-(2-hydroxyethyl)-1-piperazineethanesulfonic acid)-NaOH, pH 7.5, 1 mM EGTA ((ethylene glycol tetraacetic acid), 100 mM NaCl, 0.03% CHAPS (3-[(3-Cholamidopropyl)dimethylammonio]-1-propanesulfonate), 2 mM DTT (Dithiothreitol), 20 μM ATP (corresponding to the apparent ATP-Km), kinase (7.6 nM) and substrate (50 μM). The assay for PIK3C3 additionally contained 3 mM MnCl2.
The reaction cocktails were incubated at 30° C. for 60 minutes. The reaction was stopped with 25 μl ADP-Go™ reagent per well. Plates were incubated for 40 minutes at room temperature, followed by addition of 50 μl kinase detection reagent per well and incubation for 60 minutes at room temperature. Signal was determined with a microplate luminescence reader (Victor, Perkin Elmer). The assay was either performed using a single dose of compound (1 μM final concentration in the assay reaction) with resulting data expressed as residual activity compared to control (DMSO), or using a serial (half-log) dilution of compounds starting at 10 μM and down to 0.3 nM (final concentrations in the assay) with data expressed as the pIC50.
as §1

Sequence of Vps34 (PIK3C3 lipid kinase) (Q8NEB9 whole entry, species assumed): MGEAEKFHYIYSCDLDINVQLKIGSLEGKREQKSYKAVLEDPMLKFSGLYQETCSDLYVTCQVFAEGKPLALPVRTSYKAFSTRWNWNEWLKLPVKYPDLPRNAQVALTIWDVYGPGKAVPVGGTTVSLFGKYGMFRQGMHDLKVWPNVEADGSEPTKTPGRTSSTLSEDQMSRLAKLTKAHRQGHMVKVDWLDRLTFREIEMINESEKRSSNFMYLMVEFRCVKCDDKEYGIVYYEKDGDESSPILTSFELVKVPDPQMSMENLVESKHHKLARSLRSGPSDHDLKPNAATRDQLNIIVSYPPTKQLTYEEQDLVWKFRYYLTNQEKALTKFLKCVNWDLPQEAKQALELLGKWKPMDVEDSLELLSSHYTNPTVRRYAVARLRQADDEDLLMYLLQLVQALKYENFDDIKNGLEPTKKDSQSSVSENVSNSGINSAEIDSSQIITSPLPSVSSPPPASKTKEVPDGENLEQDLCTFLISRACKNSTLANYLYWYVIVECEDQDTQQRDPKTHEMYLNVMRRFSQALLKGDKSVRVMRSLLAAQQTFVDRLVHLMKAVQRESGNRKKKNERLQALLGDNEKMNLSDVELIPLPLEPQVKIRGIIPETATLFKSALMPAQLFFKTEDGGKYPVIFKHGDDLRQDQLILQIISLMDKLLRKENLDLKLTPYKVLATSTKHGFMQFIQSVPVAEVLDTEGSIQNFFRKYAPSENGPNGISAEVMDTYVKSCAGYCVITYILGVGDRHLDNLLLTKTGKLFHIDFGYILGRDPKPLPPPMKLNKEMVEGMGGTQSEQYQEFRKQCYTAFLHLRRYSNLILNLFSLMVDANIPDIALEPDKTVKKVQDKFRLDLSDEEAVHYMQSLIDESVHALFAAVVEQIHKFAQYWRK

Row | IC50 (EF2K [1]) [M] | IC50 (EF2K [2]) [M] | IC50 [3] [M] | VPS34_1microM_% of cntrl [3] | remaining activity at 1 µM [3] [%] | eEF2K_C_PThr56 pIC50 (EF2K [2]) | SMILES
1 | ~6.46e-07 | 1.1e-05 | 1.23e-07 | 10.54 % of cntrl | – | – | O=C1CN2CCN(CC2)Cc2cccc(c2)Nc2nccc(n2)-c2ccc(nc2)NCC(O)CN1 (single isomer, unassigned) [Compound 24]
2 | 2.88e-06 | > 3.02e-05 | 7.76e-08 | – | 6.36 | – | O=C1CN2CCN(CC2)Cc2cccc(c2)Nc2nccc(n2)-c2ccc(nc2)NCC(O)CN1 (single isomer, unassigned) [Compound 25]
3 | < 3.02e-08 | 4.57e-06 | 8.32e-08 | 7.88 % of cntrl | – | – | O=C1CN2CCN(Cc3cccc(c3)Nc3nccc(n3)-c3ccc(nc3)NCCCN1)C(CO)C2 (single isomer, unassigned) [Compound 47]
4 | 5.5e-06 | > 3.02e-05 | 4.27e-08 | 3.34 % of cntrl | – | – | O=C1CN2CCN(Cc3cccc(c3)Nc3nccc(n3)-c3ccc(nc3)NCCCN1)C(CO)C2 (single isomer, unassigned) [Compound 48]
5 | 9.12e-07 | > 3.02e-05 | 3.98e-07 | – | 12.8 | – | CN1CCCN(C)c2ccc(cn2)-c2ccnc(n2)Nc2cccc(c2)CN2CCN(CC1=O)CC2CO (single isomer, unassigned) [Compound 52]
6 | 3.39e-08 | – | 2.75e-07 | 13.15 % of cntrl | – | <4.52 | CN1CCCN(C)c2ccc(cn2)-c2ccnc(n2)Nc2cccc(c2)CN2CCN(CC1=O)CC2CO (single isomer, unassigned) [Compound 53]
7 | 1.32e-06 | > 3.02e-05 | 4.47e-08 | 6.78 % of cntrl | – | – | CC1CN2CCN1Cc1cccc(c1)Nc1nccc(n1)-c1ccc(nc1)NCCCNC(=O)C2 (single isomer, unassigned) [Compound 61]
8 | 7.76e-08 | 2.04e-06 | – | 166.89 % of cntrl | – | – | CC1CN2CCN1Cc1cccc(c1)Nc1nccc(n1)-c1ccc(nc1)NCCCNC(=O)C2 (single isomer, unassigned) [Compound 62]
9 | ~6.31e-06 | > 3.02e-05 | 4.68e-08 | – | 13.6 | – | O=C1CN2CCN(CC2)Cc2cccc(c2)Nc2nccc(n2)-c2ccc(nc2)N2CC(O)CC2CCN1 (single isomer, unassigned) [Compound 89]
10 | 9.33e-06 | > 3.02e-05 | 2.09e-07 | 15.81 % of cntrl | – | – | O=C1CN2CCN(CC2)Cc2cccc(c2)Nc2nccc(n2)-c2ccc(nc2)N2CC(O)CC2CCN1 (single isomer, unassigned) [Compound 90]
11 | 1.17e-08 | 1.41e-06 | 5.13e-06 | – | – | – | O=C1CN2CCN(CC2)Cc2cccc(c2)Nc2nccc(n2)-c2ccc(nc2)N2CC(O)CC2CCN1 (single isomer, unassigned) [Compound 91]
12 | 8.32e-07 | > 3.02e-05 | 3.47e-07 | – | 18.8 | – | CN1CCCN(C)c2ccc(cn2)-c2ccnc(n2)Nc2cccc(c2)CN2CCN(CC1=O)C(CO)C2 (single isomer, unassigned) [Compound 95]
13 | 6.76e-09 | 1.26e-06 | 1.32e-07 | – | – | – | O=C1CN2CCN(CC2)Cc2cccc(c2)Nc2nccc(n2)-c2ccc(nc2)N2CC(O)CC2CCN1 (single isomer, unassigned) [Compound 96]
14 | 2.4e-06 | > 3.02e-05 | 1.51e-06 | – | – | – | CN1CCCN(C)c2ccc(cn2)-c2ccnc(n2)Nc2cccc(c2)CN2CCN(CC1=O)CC2COCCN1CCOCC1 (single isomer, unassigned) [Compound 99]
15 | 6.46e-08 | 1.48e-05 | – | – | 43 | – | CN1CCCN(C)c2ccc(cn2)-c2ccnc(n2)Nc2cccc(c2)CN2CCN(CC1=O)CC2COCCN1CCOCC1 (single isomer, unassigned) [Compound 100]
16 | 1.78e-05 | > 3.02e-05 | 3.02e-07 | – | 25.1 | – | CN1CCCN(C)c2ccc(cn2)-c2ccnc(n2)Nc2cccc(c2)CN2CCN(CC1=O)CC2COCCO (single isomer, unassigned) [Compound 104]
17 | 8.71e-08 | 1.78e-05 | 9.77e-07 | 28.59 % of cntrl | – | – | CN1CCCN(C)c2ccc(cn2)-c2ccnc(n2)Nc2cccc(c2)CN2CCN(CC1=O)CC2COCCO (single isomer, unassigned) [Compound 105]
18 | 1.45e-07 | ~8.51e-06 | 1.66e-08 | 3.08 % of cntrl | – | – | CC1CN2CCN1CC(=O)NCCCNc1ccc(cn1)-c1ccnc(n1)Nc1cccc(c1)C2 (single isomer, unassigned) [Compound 136]
19 | 1.95e-06 | > 3.02e-05 | 8.13e-08 | 8.17 % of cntrl | – | – | CC1CN2CCN1CC(=O)NCCCNc1ccc(cn1)-c1ccnc(n1)Nc1cccc(c1)C2 (single isomer, unassigned) [Compound 137]
20 | 2e-05 | – | 7.76e-07 | – | 28.4 | – | CN1CCN(C)c2ccc(cn2)-c2ccnc(n2)Nc2cccc(c2)CN2CCNC(C2)C1=O (stereo not shown) [Compound 68]
21 | > 3.02e-05 | – | 2.24e-06 | – | 22.8 | – | CN1CCN(C)c2ccc(cn2)-c2ccnc(n2)Nc2cccc(c2)CN2CCN(C)C(C2)C1=O (stereo not shown) [Compound 69]
22 | 2.04e-05 | – | 4.79e-07 | – | 20.7 | – | CN1CCCN(C)c2ccc(cn2)-c2ccnc(n2)Nc2cccc(c2)CN2CCNC(C2)C1=O (stereo not shown) [Compound 74]
23 | 2.34e-07 | – | 3.47e-07 | – | 8.71 | – | CN1CCCN(C)c2ccc(cn2)-c2ccnc(n2)Nc2cccc(c2)CN2CCN(CC2)C1=O [Compound 76]
24 | 1.78e-05 | – | – | – | 34.1 | – | CC(C)N1CCN(C(C)C)c2ccc(cn2)-c2ccnc(n2)Nc2cccc(c2)CN2CCN(CC2)CC1=O [Compound 121]
